Reference: PubChem BioAssay AID1918955 (Molecular Pharmacology Branch, DTP, NCI, 2023)

System: NCI/ADR-RES complex spheroid viability
Assay: Anticancer human tumor NCI/ADR-RES cell line growth inhibition;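 further: spheroids exposed to compounds for 7 days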;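 on viability, T/C: 100% = DMSO vehicle treated spheroids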
Conditions: for IC50: curve of first compound; for viability, T/C: stronger effect = lower value
Summary of the method: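 Drug combinations with the LSD1 inhibitor iadademstat tested on tumor cells co-cultured as spheroids with endothelial cells and mesenchymal stem cells. Concentrations descended in half-log increments from clinical Cmax or 10 microM.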

[1] = second compound 0.1 µM, first compound 0.000316 µM
[2] = second compound 0.1 µM, first compound 0.001 µM
[3] = second compound 0.1 µM, first compound 0.00316 µM
[4] = second compound 0.1 µM, first compound 0.01 µM
[5] = second compound 0.1 µM, first compound 0.0316 µM
[6] = second compound 0.1 µM, first compound 0.1 µM
[7] = second compound 0.316 µM, first compound 0.000316 µM
[8] = second compound 0.316 µM, first compound 0.001 µM
[9] = second compound 0.316 µM, first compound 0.00316 µM
[10] = second compound 0.316 µM, first compound 0.01 µM
[11] = second compound 0.316 µM, first compound 0.0316 µM
[12] = second compound 0.316 µM, first compound 0.1 µM
[13] = second compound 1 µM, first compound 0.000316 µM
[14] = second compound 1 µM, first compound 0.001 µM
[15] = second compound 1 µM, first compound 0.00316 µM
[16] = second compound 1 µM, first compound 0.01 µM
[17] = second compound 1 µM, first compound 0.0316 µM
[18] = second compound 1 µM, first compound 0.1 µM
[19] = second compound 3.16 µM, first compound 0.000316 µM
[20] = second compound 3.16 µM, first compound 0.001 µM
[21] = second compound 3.16 µM, first compound 0.00316 µM
[22] = second compound 3.16 µM, first compound 0.01 µM
[23] = second compound 3.16 µM, first compound 0.0316 µM
[24] = second compound 3.16 µM, first compound 0.1 µM
[25] = second compound 10 µM, first compound 0.000316 µM
[26] = second compound 10 µM, first compound 0.001 µM
[27] = second compound 10 µM, first compound 0.00316 µM
[28] = second compound 10 µM, first compound 0.01 µM
[29] = second compound 10 µM, first compound 0.0316 µM
[30] = second compound 10 µM, first compound 0.1 µM
[31] = second compound 0.1 µM, first compound 0.00949 µM
[32] = second compound 0.1 µM, first compound 0.03 µM
[33] = second compound 0.1 µM, first compound 0.0949 µM
[34] = second compound 0.1 µM, first compound 0.3 µM
[35] = second compound 0.1 µM, first compound 0.949 µM
[36] = second compound 0.1 µM, first compound 3 µM
[37] = second compound 0.316 µM, first compound 0.00949 µM
[38] = second compound 0.316 µM, first compound 0.03 µM
[39] = second compound 0.316 µM, first compound 0.0949 µM
[40] = second compound 0.316 µM, first compound 0.3 µM
[41] = second compound 0.316 µM, first compound 0.949 µM
[42] = second compound 0.316 µM, first compound 3 µM
[43] = second compound 1 µM, first compound 0.00949 µM
[44] = second compound 1 µM, first compound 0.03 µM
[45] = second compound 1 µM, first compound 0.0949 µM
[46] = second compound 1 µM, first compound 0.3 µM
[47] = second compound 1 µM, first compound 0.949 µM
[48] = second compound 1 µM, first compound 3 µM
[49] = second compound 3.16 µM, first compound 0.00949 µM
[50] = second compound 3.16 µM, first compound 0.03 µM
[51] = second compound 3.16 µM, first compound 0.0949 µM
[52] = second compound 3.16 µM, first compound 0.3 µM
[53] = second compound 3.16 µM, first compound 0.949 µM
[54] = second compound 3.16 µM, first compound 3 µM
[55] = second compound 10 µM, first compound 0.00949 µM
[56] = second compound 10 µM, first compound 0.03 µM
[57] = second compound 10 µM, first compound 0.0949 µM
[58] = second compound 10 µM, first compound 0.3 µM
[59] = second compound 10 µM, first compound 0.949 µM
[60] = second compound 10 µM, first compound 3 µM

SMILES: CC(C)CC(NC(=O)CNC(=O)c1cc(Cl)ccc1Cl)B1OC(=O)CC(CC(=O)O)(C(=O)O)O1 (stereo not given) + NC1CC1c1ccc(-c2cccc(O)c2)cc1
- IC50 (second compound 0.1 µM): 0.0236 µM
- IC50 (second compound 0.316 µM): 0.0238 µM
- IC50 (second compound 1 µM): 0.0259 µM
- IC50 (second compound 3.16 µM): 0.0195 µM
- IC50 (second compound 10 µM): 0.0177 µM
- viability, T/C [1]: 101%
- viability, T/C [2]: 108%
- viability, T/C [3]: 97.9%
- viability, T/C [4]: 84.5%
- viability, T/C [5]: 38.3%
- viability, T/C [6]: 2.37%
- viability, T/C [7]: 109%
- viability, T/C [8]: 104%
- viability, T/C [9]: 102%
- viability, T/C [10]: 81.3%
- viability, T/C [11]: 39.8%
- viability, T/C [12]: 2.3%
- viability, T/C [13]: 97.3%
- viability, T/C [14]: 93.8%
- viability, T/C [15]: 96.2%
- viability, T/C [16]: 81.3%
- viability, T/C [17]: 43.4%
- viability, T/C [18]: 3.84%
- viability, T/C [19]: 101%
- viability, T/C [20]: 94.7%
- viability, T/C [21]: 88.9%
- viability, T/C [22]: 80.4%
- viability, T/C [23]: 28.5%
- viability, T/C [24]: 4.76%
- viability, T/C [25]: 90.3%
- viability, T/C [26]: 88.9%
- viability, T/C [27]: 81%
- viability, T/C [28]: 64.9%
- viability, T/C [29]: 34.9%
- viability, T/C [30]: 2.76%

SMILES: COc1cc(Nc2ncc3c(n2)-c2ccc(Cl)cc2C(c2c(F)cccc2OC)=NC3)ccc1C(=O)O + NC1CC1c1ccc(-c2cccc(O)c2)cc1
- IC50 (second compound 0.1 µM): 0.0169 µM
- IC50 (second compound 0.316 µM): 0.0183 µM
- IC50 (second compound 1 µM): 0.0176 µM
- IC50 (second compound 3.16 µM): 0.0195 µM
- IC50 (second compound 10 µM): 0.0171 µM
- viability, T/C [3]: 86%
- viability, T/C [4]: 64.9%
- viability, T/C [5]: 32.5%
- viability, T/C [6]: 16%
- viability, T/C (second compound 0.1 µM, first compound 0.316 µM): 15.4%
- viability, T/C (second compound 0.1 µM, first compound 1 µM): 14.4%
- viability, T/C [9]: 93.5%
- viability, T/C [10]: 65.8%
- viability, T/C [11]: 36.7%
- viability, T/C [12]: 18%
- viability, T/C (second compound 0.316 µM, first compound 0.316 µM): 15.7%
- viability, T/C (second compound 0.316 µM, first compound 1 µM): 17.3%
- viability, T/C [15]: 89.7%
- viability, T/C [16]: 62.2%
- viability, T/C [17]: 38.1%
- viability, T/C [18]: 19.7%
- viability, T/C (second compound 1 µM, first compound 0.316 µM): 14.4%
- viability, T/C (second compound 1 µM, first compound 1 µM): 12%
- viability, T/C [21]: 88.6%
- viability, T/C [22]: 63.6%
- viability, T/C [23]: 41.8%
- viability, T/C [24]: 19.4%
- viability, T/C (second compound 3.16 µM, first compound 0.316 µM): 15.9%
- viability, T/C (second compound 3.16 µM, first compound 1 µM): 11.8%
- viability, T/C [27]: 79.2%
- viability, T/C [28]: 57.8%
- viability, T/C [29]: 41.2%
- viability, T/C [30]: 23.6%
- viability, T/C (second compound 10 µM, first compound 0.316 µM): 13%
- viability, T/C (second compound 10 µM, first compound 1 µM): 11.9%

SMILES: Cn1ncnc1C1c2n[nH]c(=O)c3cc(F)cc(c23)NC1c1ccc(F)cc1 (stereo not given) + NC1CC1c1ccc(-c2cccc(O)c2)cc1
- IC50 (second compound 0.1 µM): > 0.1 µM
- IC50 (second compound 0.316 µM): > 0.1 µM
- IC50 (second compound 1 µM): > 0.1 µM
- IC50 (second compound 3.16 µM): > 0.1 µM
- IC50 (second compound 10 µM): > 0.1 µM
- viability, T/C [1]: 101%
- viability, T/C [2]: 104%
- viability, T/C [3]: 106%
- viability, T/C [4]: 103%
- viability, T/C [5]: 104%
- viability, T/C [6]: 97%
- viability, T/C [7]: 104%
- viability, T/C [8]: 107%
- viability, T/C [9]: 104%
- viability, T/C [10]: 110%
- viability, T/C [11]: 110%
- viability, T/C [12]: 105%
- viability, T/C [13]: 98.2%
- viability, T/C [14]: 101%
- viability, T/C [15]: 109%
- viability, T/C [16]: 95.8%
- viability, T/C [17]: 100%
- viability, T/C [18]: 102%
- viability, T/C [19]: 105%
- viability, T/C [20]: 99.3%
- viability, T/C [21]: 100%
- viability, T/C [22]: 97%
- viability, T/C [23]: 97.3%
- viability, T/C [24]: 93.8%
- viability, T/C [25]: 97.1%
- viability, T/C [26]: 91.1%
- viability, T/C [27]: 90.5%
- viability, T/C [28]: 96.8%
- viability, T/C [29]: 94.6%
- viability, T/C [30]: 85.3%

SMILES: NS(=O)(=O)OCC1CC(n2ccc3c(NC4CCc5ccccc54)ncnc32)CC1O (stereo not given) + NC1CC1c1ccc(-c2cccc(O)c2)cc1
- IC50 (second compound 0.1 µM): 1.13 µM
- IC50 (second compound 0.316 µM): 1.03 µM
- IC50 (second compound 1 µM): 1.16 µM
- IC50 (second compound 3.16 µM): 1.11 µM
- IC50 (second compound 10 µM): 1.13 µM
- viability, T/C [31]: 99.2%
- viability, T/C [32]: 90.5%
- viability, T/C [33]: 92.1%
- viability, T/C [34]: 78.4%
- viability, T/C [35]: 55%
- viability, T/C [36]: 20.6%
- viability, T/C [37]: 96.7%
- viability, T/C [38]: 100%
- viability, T/C [39]: 85.9%
- viability, T/C [40]: 77.5%
- viability, T/C [41]: 51.6%
- viability, T/C [42]: 22.2%
- viability, T/C [43]: 98.5%
- viability, T/C [44]: 88.4%
- viability, T/C [45]: 86.7%
- viability, T/C [46]: 78.6%
- viability, T/C [47]: 54.5%
- viability, T/C [48]: 23.2%
- viability, T/C [49]: 96.8%
- viability, T/C [50]: 94.8%
- viability, T/C [51]: 86.3%
- viability, T/C [52]: 77%
- viability, T/C [53]: 54.3%
- viability, T/C [54]: 22.2%
- viability, T/C [55]: 92%
- viability, T/C [56]: 89.9%
- viability, T/C [57]: 81%
- viability, T/C [58]: 75.1%
- viability, T/C [59]: 53.3%
- viability, T/C [60]: 27%

SMILES: O=C(C=Cc1cccc(S(=O)(=O)Nc2ccccc2)c1)NO + NC1CC1c1ccc(-c2cccc(O)c2)cc1
- IC50 (second compound 0.1 µM): 0.0794 µM
- IC50 (second compound 0.316 µM): 0.0855 µM
- IC50 (second compound 1 µM): 0.079 µM
- IC50 (second compound 3.16 µM): 0.09 µM
- IC50 (second compound 10 µM): 0.0733 µM
- viability, T/C [31]: 110%
- viability, T/C [32]: 85.7%
- viability, T/C [33]: 42.1%
- viability, T/C [34]: 17.2%
- viability, T/C [35]: 5.63%
- viability, T/C [36]: 1.57%
- viability, T/C [37]: 102%
- viability, T/C [38]: 86.8%
- viability, T/C [39]: 44.9%
- viability, T/C [40]: 17.3%
- viability, T/C [41]: 7.86%
- viability, T/C [42]: 1.94%
- viability, T/C [43]: 107%
- viability, T/C [44]: 77.5%
- viability, T/C [45]: 46%
- viability, T/C [46]: 18.2%
- viability, T/C [47]: 8.7%
- viability, T/C [48]: 1.47%
- viability, T/C [49]: 97%
- viability, T/C [50]: 76.4%
- viability, T/C [51]: 49.8%
- viability, T/C [52]: 22.1%
- viability, T/C [53]: 9.4%
- viability, T/C [54]: 1.58%
- viability, T/C [55]: 102%
- viability, T/C [56]: 71.5%
- viability, T/C [57]: 44.1%
- viability, T/C [58]: 22.5%
- viability, T/C [59]: 13.5%
- viability, T/C [60]: 3.92%
